Data reported in publication PMC8708875 (Pharmaceutics, 2021).

Assays:
Assay type in all cases: cell-based, mouse
[1] = test system: epididymal adipose tissue explants; experiment: Glucose uptake in epididymal adipose tissue explants; settings: Ric4 100 µM, insulin 100 nM; 3H-deoxyglucose 1 µCi/mL, Krebs-Ringer bicarbonate buffer, 37 °C
Method: Glucose uptake was evaluated in adipose tissue explants from mice bearing or not deletion of insulin receptor in adipocytes essentially as previously described. Briefly, explants of epididymal adipose tissue (20–25 mg) were incubated in 1 mL of Krebs–Ringer bicarbonate buffer (in mmol/L): 118 NaCl, 4.8 KCl, 1.25 CaCl2, 1.2 KH2PO4, 1.2 MgSO4, 25 NaHCO3, and 5.5 glucose and 1 μCi/mL of ^3H-deoxyglucose (New England Radiochemicals, Boston, MA, USA) supplemented with 2% fatty acid-free BSA (Sigma, Oakville, ON, Canada), 7.4. Vials were incubated at 37 °C for […] in the presence or absence of insulin (100 nM) or Ric4 peptide (100 µM). After 30 min, explants were extensively washed and processed to evaluate the uptake of ^3H deoxyglucose as previously described.
Figure 4 Glucose uptake and GLUT4 translocation induced by Ric4 in C2C12 cells. C2C12 cells were previously incubated in serum-free and glucose-free DMEM medium, then incubated with HEPES buffer for 30 min and then incubated for a further 30 min in glucose-uptake buffer containing vehicle, Ric4 (100 µM), or insulin (100 nM) in the presence of ^3H-glucose (1 µCi/mL) or 2-NBDG (80 µM). After incubations cells were lysed with 50 μL of 0.1 N NaOH and fluorescence or radiation of aliquots from the lysate were measured (A). Epididymal adipose tissue explants (20–25 mg) were incubated in Krebs–Ringer bicarbonate buffer containing glucose 5.5 mM and 1 μCi/mL of ^3H-deoxyglucose supplemented with 2% fatty acid-free for 30 min at 37 °C in the presence or absence of insulin (100 nM) or Ric4 (100 µM). The explants were processed to evaluate the uptake of ^3H-deoxyglucose (B). Myotubes were previously incubated in serum-free and glucose-free DMEM medium and then treated with control vehicle PBS or Ric4 (100 µM) for 30 min. Proteins from subcellular fractions: N/ER (C), microsomal (D), plasma membrane (E), were isolated and the expression Glut4 was analyzed by Western blot. Images were quantified using ImageJ 1.49 software. The statistical comparisons were performed using analysis of variance (ANOVA), followed by ad-hoc Tukey’s test using GraphPad Prism software * p < 0.05; # p < 0.05; **** p < 0.0001.

[2] = test system: differentiated C2C12 myotubes; experiment: qPCR gene expression in differentiated C2C12 myotubes; settings: Ric peptides 100 µM, insulin positive control, qPCR normalised to GAPDH, control = 1, mean ± SEM
Method: C2C12 cells were used as a well-described model of skeletal muscle to evaluate the effect of peptides in gene expression, cell signaling, and glucose uptake. These cells were kindly provided by Prof. Patricia Brum, School of Physical Education and Prof. Anselmo Moriscot, Biomedical Science Institute, University of São Paulo, São Paulo, Brazil. C2C12 cells were cultured and maintained in high glucose Dulbecco's modified Eagle's medium (DMEM; Thermo Fisher Scientific, São Paulo, SP, Brazil) supplemented with 10% fetal bovine serum (FBS), 100 U/mL penicillin, and […] streptomycin in a humidified atmosphere of 5% CO2 at 37 °C. The cells were used in low pass (between passages 2 and 4) for all experiments to maintain the potential for differentiation of cultures. Cells grown to approximately 70% confluence in T75 culture flasks were treated with trypsin and seeded in various P100 culture dishes. Cells were then cultured in the presence of 10% FBS until they reach about 90% confluence, at which point the medium was replaced with DMEM containing 2% horse serum for the induction of differentiation in myotubes. During this time, the fused myoblasts formed elongated, multi-nucleated myotubes, and within 7 days more than 95% of the cells already fused into myotubes. Cultures of C2C12 were treated with phosphate buffer saline (137 mM NaCl, 2.7 mM KCl, 10 mM Na2HPO4, and 1.8 mM KH2PO4, pH 7.4; PBS; control), insulin or […], for the indicated period of time. From these treatments the cells were processed for molecular analyses. Real-time PCR (qPCR) experiments were performed to evaluate the mRNA expression levels, at basal and under stimulus, for peroxisome proliferator activator receptor gamma (PPARγ), peroxisome proliferator activator receptor […] responsive element binding protein 1 (Creb1), aldolase A, fructose-bisphosphate (ALDOA), cytochrome c oxidase subunit IV isoform 1 (Cox4i1), phosphoglycerate mutase 2 (PGAM2), troponin I, skeletal, fast 2 (TNNI2), […] (TNNT3), small muscle protein X-linked (SMPX), myosin, […] (MYH1), insulin-growth factor 1 (IGF1), Glucose transporter 4 (GLUT4), and lipoprotein lipase (LPL). Primers sequences are described in Supplementary Materials (Table S1). Cells were homogenized and total RNA extracted using Trizol according to the manufacturer's instructions (TRIzol, Life Technologies, Rockville, MD, USA). After extraction of RNA, all samples were purified and treated with DNAse using RNeasy Mini Kit (Qiagen, Foster City, CA, USA). The integrity of the RNA was verified by 1% agarose gel electrophoresis stained with ethidium bromide and visualized in ultraviolet light. […] The standard curves for all the primers used herein were previously constructed to determine the efficiency of the amplification of the target and reference genes. Quantitative PCRs were performed using the Prism 7900 sequence detection system (Applied Biosystems, Foster City, CA, USA) with 100 nM primer and 20 ng cDNA. The expression of mRNA targets was normalized by expression of gene glyceraldehyde 3-phosphate dehydrogenase (GAPDH) or hipoxantina-guanina fosforibosiltransferase (HPRT) and expressed as relative values using the 2 DDCt method. The expression levels of target genes were normalized with housekeeping genes GAPDH or HPRT, and alterations were expressed relative to control unstimulated cells. […] Therefore, the possible effects of Ric1-Ric4 (100 μM) on gene expression were evaluated. For all these experiments, insulin was used as “gold standard”/positive control, and GAPDH expression was used as normalization control (Table 2, Control “1”/100%). Relative to GAPDH expression, insulin increased the expression of all genes evaluated (Table 1). […]

[3] = test system: differentiated C2C12 myotubes; experiment: as above; settings: Ric peptides 100 µM, insulin positive control, qPCR normalised to GAPDH, control = 1, mean ± SEM; remark: listed apart in the source

| Substance | glucose uptake in adipose tissue explants from C57BL6N WT mice [1] | glucose uptake in adipose tissue explants from conditional knockout mice depleted from insulin receptor [1] | relative expression of Aldolase A, fructose-bisphosphate (ALDOA) [2] | relative expression of Cytochrome c oxidase subunit IV isoform 1 (Cox4i1) [2] | relative expression of Peroxisome proliferator activator receptor gamma (PPARγ) [2] | relative expression of Phosphoglycerate mutase 2 (PGAM2) [2] | relative expression of Small muscle protein X-linked (SMPX) [2] | relative expression of Troponin I, skeletal, fast 2 (TNNI2) [2] | relative expression of Troponin I, skeletal, fast 3 (TNNT3) [2] | relative expression of cAMP responsive element binding protein 1 (Creb1) [2] | relative expression of Myosin, light chain 1 (MYL1) [3] |
| --- | --- | --- | --- | --- | --- | --- | --- | --- | --- | --- | --- |
| Insulin | stimulate glucose uptake | neither insulin nor Ric4 were capable of inducing glucose uptake | 7.65 ± 0.96 | 6.71 ± 1.24 | 6.98 ± 1.23 | 8.26 ± 0.99 | 5.96 ± 0.98 | 6.36 ± 1.13 | 6.22 ± 0.98 | 6.48 ± 1.08 | 6.18 ± 1.07 |
| LASVSTVLTSKYR [Ric4, intracellular peptide derived from hemoglobin alpha subunit, last 13 C-terminal amino acids] | stimulate glucose uptake | neither insulin nor Ric4 were capable of inducing glucose uptake | 4.22 ± 0.74 | 1.41 ± 1.12 | 1.21 ± 1.02 | 2.65 ± 0.87 | 3.21 ± 0.99 | 3.14 ± 0.65 | 2.38 ± 0.72 | 1.03 ± 0.85 | 3.58 ± 1.07 |
